In US9562035B2, “Benzamide derivative useful as FASN inhibitors for the treatment of cancer” (Janssen Pharmaceutica NV, priority 2013, dated 2017):

How the values were obtained:
[1] = target: T1, hFASN enzyme (full length) (Homo sapiens, UniProt P49327); experiment: Fatty Acid Synthase (FASN) Inhibition Scintillation Proximity Assay; assay type: biochemical; details: for IC50: mean where tested more than once, ~ = standard error of pIC50 larger than 0.5; for inhibition at 10 µM: read-out: FASN % Effect @1E−05M
T1 construct: 10 μL hFASN enzyme (full length, 300 ng, purified in house); made in house
How it was run: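 Eight compound concentrations (0.01–30 μM) tested in pH 7.5 phosphate buffer with DTT; human full-length enzyme converted [3H]-acetyl-CoA plus malonyl-CoA, with NADPH, over 60 min at room temperature. Hydrophobic [3H]-palmitate detected by bead proximity scintillation imaging; control-normalised data fitted for IC50/pIC50.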

[2] = target: T2, FASN Keto-reductase Domain (Homo sapiens, UniProt P49327); experiment: Fatty Acid Synthase Keto-Reductase Domain (FASN KR) Inhibition; assay type: biochemical; details: mean where tested more than once; read-out: FASN K-R Domain pIC50 (converted)
T2 construct: 10 μL hFASN enzyme (full length, 300 ng, purified in house) and 360 μM NADPH; made in house
How it was run: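 Keto-reductase activity followed as NADPH consumption (A340 drop between 0 and 20 min, room temperature) using in-house full-length hFASN, 360 μM NADPH and ethyl acetoacetate substrate (180 mM stock), pH 7.5 phosphate buffer.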

A2780 ovarian cells [3] = experiment: A2780 Ovarian Cell Proliferation Assay in Lipid Reduced Medium, without Palmitate; assay type: cell-based; details: Homo sapiens, A2780; lipid reduced medium, without palmitate, 96 h, MTT; read-out: Proliferation A2780 w/o Palmitate pIC50 (converted)
How it was run: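 A2780 cells were seeded in 10% FCS medium and switched next day to 10% lipid-reduced serum without palmitate. Compounds at 0.01–30 μM were added with 0.2% DMSO, 0.2% fatty-acid-free BSA and 0.25% ethanol final. After 96 h, MTT absorbance at 544 nm was normalized to plate controls, and IC50/pIC50 came from a 4-parameter logistic fit.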

A2780 ovarian cells [4] = experiment: A2780 Ovarian Cell Proliferation Assay in Lipid Reduced Medium, with Palmitate (control); assay type: cell-based; details: Homo sapiens, A2780; lipid reduced medium, 25 μM palmitate, 96 h, MTT; read-out: Proliferation A2780 with Palmitate pIC50 (converted)
How it was run: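 Read-out was MTT absorbance at 544 nm after 96 h at 37 °C. Cells grown overnight in RPMI1640/10% FCS were moved to 10% lipid-reduced serum with compound plus palmitate (final 25 μM, 0.2% fatty-acid-free BSA, 0.2% DMSO). IC50 came from least-squares curve fitting, expressed as −log(IC50).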

T2 sequence (P49327 whole entry, the tested form may be a part): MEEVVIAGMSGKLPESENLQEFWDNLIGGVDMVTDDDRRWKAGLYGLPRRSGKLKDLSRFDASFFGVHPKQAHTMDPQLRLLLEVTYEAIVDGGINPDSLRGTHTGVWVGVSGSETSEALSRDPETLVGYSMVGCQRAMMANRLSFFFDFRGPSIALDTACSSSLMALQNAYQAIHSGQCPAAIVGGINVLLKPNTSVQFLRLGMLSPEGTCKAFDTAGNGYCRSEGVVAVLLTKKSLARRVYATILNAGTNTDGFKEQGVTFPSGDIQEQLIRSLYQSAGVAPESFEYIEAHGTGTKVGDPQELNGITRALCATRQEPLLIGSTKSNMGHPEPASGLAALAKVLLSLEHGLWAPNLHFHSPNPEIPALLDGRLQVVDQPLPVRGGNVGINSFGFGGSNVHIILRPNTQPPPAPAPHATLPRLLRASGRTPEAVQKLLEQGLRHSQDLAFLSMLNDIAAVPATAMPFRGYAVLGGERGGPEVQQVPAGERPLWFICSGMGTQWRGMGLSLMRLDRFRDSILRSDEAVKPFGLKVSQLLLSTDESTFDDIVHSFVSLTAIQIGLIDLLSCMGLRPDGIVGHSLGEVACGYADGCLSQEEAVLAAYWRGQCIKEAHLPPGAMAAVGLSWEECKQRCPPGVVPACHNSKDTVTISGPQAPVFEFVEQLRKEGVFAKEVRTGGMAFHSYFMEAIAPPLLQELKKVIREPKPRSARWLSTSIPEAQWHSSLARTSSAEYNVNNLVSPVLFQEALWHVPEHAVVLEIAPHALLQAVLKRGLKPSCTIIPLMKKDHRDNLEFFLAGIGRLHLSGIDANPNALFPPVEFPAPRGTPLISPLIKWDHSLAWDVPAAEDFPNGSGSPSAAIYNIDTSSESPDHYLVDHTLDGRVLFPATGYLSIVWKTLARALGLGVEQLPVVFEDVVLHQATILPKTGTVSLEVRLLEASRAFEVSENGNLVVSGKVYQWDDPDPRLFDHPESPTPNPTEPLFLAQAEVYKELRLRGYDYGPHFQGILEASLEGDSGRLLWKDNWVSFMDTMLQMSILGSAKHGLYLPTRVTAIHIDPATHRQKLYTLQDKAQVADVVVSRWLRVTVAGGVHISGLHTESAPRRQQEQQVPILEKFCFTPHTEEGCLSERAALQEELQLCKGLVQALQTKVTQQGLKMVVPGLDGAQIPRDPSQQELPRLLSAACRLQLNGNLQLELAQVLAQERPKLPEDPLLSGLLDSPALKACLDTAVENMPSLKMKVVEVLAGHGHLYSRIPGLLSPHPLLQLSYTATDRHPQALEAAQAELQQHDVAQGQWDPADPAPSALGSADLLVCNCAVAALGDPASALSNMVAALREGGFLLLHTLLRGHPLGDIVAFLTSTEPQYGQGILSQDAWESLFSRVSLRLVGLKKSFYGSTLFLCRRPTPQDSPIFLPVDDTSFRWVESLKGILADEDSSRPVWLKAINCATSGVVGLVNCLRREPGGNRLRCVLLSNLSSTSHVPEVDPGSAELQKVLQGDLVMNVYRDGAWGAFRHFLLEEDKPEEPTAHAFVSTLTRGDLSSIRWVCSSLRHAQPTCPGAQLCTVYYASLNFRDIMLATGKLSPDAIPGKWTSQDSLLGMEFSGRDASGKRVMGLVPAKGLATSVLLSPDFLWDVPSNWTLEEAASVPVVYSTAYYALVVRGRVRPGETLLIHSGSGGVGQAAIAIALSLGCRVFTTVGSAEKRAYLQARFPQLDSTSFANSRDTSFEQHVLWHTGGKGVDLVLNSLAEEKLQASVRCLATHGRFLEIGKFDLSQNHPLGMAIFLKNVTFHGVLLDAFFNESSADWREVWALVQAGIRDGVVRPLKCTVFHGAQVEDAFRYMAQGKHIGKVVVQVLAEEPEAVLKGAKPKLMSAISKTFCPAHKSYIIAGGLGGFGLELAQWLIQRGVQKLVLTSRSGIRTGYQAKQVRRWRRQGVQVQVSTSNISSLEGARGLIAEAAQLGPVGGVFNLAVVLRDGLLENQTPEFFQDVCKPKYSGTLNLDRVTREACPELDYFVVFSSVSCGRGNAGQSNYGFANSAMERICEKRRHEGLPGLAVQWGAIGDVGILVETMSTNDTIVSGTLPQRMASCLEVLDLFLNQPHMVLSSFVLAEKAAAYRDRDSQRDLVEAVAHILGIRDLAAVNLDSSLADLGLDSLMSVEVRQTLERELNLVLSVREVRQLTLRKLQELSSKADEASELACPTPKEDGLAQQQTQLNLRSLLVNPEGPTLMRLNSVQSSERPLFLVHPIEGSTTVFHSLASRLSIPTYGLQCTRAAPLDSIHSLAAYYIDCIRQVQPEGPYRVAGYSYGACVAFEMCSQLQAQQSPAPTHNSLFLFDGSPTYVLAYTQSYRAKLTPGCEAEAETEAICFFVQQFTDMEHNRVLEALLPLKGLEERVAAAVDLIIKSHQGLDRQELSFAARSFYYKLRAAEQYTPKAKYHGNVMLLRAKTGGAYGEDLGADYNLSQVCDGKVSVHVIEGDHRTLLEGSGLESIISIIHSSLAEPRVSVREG
T1 sequence (P49327 whole entry): as the sequence (P49327 whole entry, the tested form may be a part) above

Row | IC50 [1] [nM] | inhibition at 10 µM [1] [%] | IC50 [2] [nM] | IC50 (A2780 ovarian cells [3]) [nM] | IC50 (A2780 ovarian cells [4]) [nM] | Structure (SMILES)
1 | 33.1 | 99 | 83.2 | 138 | > 10000 | Cc1ccc(C(=O)N2CCC(c3ccc(-c4cnn(C)c4)cc3)CC2)cc1NC(=O)c1ccccc1F [Compound 117, 2-fluoro-N-(2-methyl-5-(4-(4-(1-methyl-1H-pyrazol-4-yl)phenyl)piperidine-1-carbonyl)phenyl)benzamide]
2 | 64.6 | 98 | 141 | 191 | 6460 | Cc1ccc(C(=O)N2CCC(c3ccc(-c4cnn(C)c4)cc3)CC2)cc1NC(=O)c1ccc(N(C)C)cn1 [Compound 119, 5-(dimethylamino)-N-(2-methyl-5-(4-(4-(1-methyl-1H-pyrazol-4-yl)phenyl)piperidine-1-carbonyl)phenyl)picolinamide]
3 | 44.7 | 95 | 97.7 | 145 | ~10000 | Cc1ccc(C(=O)N2CCC(c3ccc(-c4cnn(C)c4)cc3)CC2)cc1NC(=O)c1ccc(F)c(F)c1F [Compound 120, 2,3,4-trifluoro-N-(2-methyl-5-(4-(4-(1-methyl-1H-pyrazol-4-yl)phenyl)piperidine-1-carbonyl)phenyl)benzamide]
4 | 380 | 87 | 794 | 1000 | 8510 | Cc1ccc(C(=O)N2CCC(c3ccc(-c4cnn(C)c4)cc3)CC2)cc1NC(=O)c1c(Cl)cccc1Cl [Compound 121, 2,6-dichloro-N-(2-methyl-5-(4-(4-(1-methyl-1H-pyrazol-4-yl)phenyl)piperidine-1-carbonyl)phenyl)benzamide]
5 | 18.6 | 101 | 75.9 | 117 | > 10000 | Cc1ccc(C(=O)N2CCC(c3ccc(-c4cnn(C)c4)cc3)CC2)cc1NC(=O)c1ccc(Cl)cc1Cl [Compound 122, 2,4-dichloro-N-(2-methyl-5-(4-(4-(1-methyl-1H-pyrazol-4-yl)phenyl)piperidine-1-carbonyl)phenyl)benzamide]
6 | 53.7 | 97 | 77.6 | 162 | 6760 | Cc1ccc(C(=O)N2CCC(c3ccc(-c4cnn(C)c4)cc3)CC2)cc1NC(=O)c1ccc(Cl)c(Cl)c1 [Compound 123, 3,4-dichloro-N-(2-methyl-5-(4-(4-(1-methyl-1H-pyrazol-4-yl)phenyl)piperidine-1-carbonyl)phenyl)benzamide]
7 | 25.7 | 105 | 81.3 | 33.9 | 5370 | Cc1ccc(C(=O)N2CCC(c3ccc(-c4cnn(C)c4)cc3)CC2)cc1NC(=O)C1CCN(Cc2ccccc2)CC1 [Compound 124, 1-benzyl-N-(2-methyl-5-(4-(4-(1-methyl-1H-pyrazol-4-yl)phenyl)piperidine-1-carbonyl)phenyl)piperidine-4-carboxamide]
8 | 44.7 | 104 | 79.4 | 132 | 4790 | Cc1ccc(C(=O)N2CC(c3ccc(-c4cnn(C)c4)cc3)C2)cc1NC(=O)C1CCCCC1 [Compound 125, N-(2-methyl-5-(3-(4-(1-methyl-1H-pyrazol-4-yl)phenyl)azetidine-1-carbonyl)phenyl)cyclohexanecarboxamide]
9 | 30.2 | 110 | 32.4 | 26.3 | > 10000 | CSc1ccc(C(=O)Nc2cc(C(=O)N3CCC(c4ccc(-c5cnn(C)c5)cc4)CC3)ccc2C)cc1 [Compound 126, N-(2-methyl-5-(4-(4-(1-methyl-1H-pyrazol-4-yl)phenyl)piperidine-1-carbonyl)phenyl)-4-(methylthio)benzamide]
10 | 182 | 98 | 389 | 562 | 4470 | Cc1ccc(F)c(C(=O)Nc2cc(C(=O)N3CCC(c4ccc(-c5cnn(C)c5)cc4)CC3)ccc2C)c1 [Compound 127, 2-fluoro-5-methyl-N-(2-methyl-5-(4-(4-(1-methyl-1H-pyrazol-4-yl)phenyl)piperidine-1-carbonyl)phenyl)benzamide]
11 | 257 | 84 | 288 | ~417 | 6170 | COc1cc(Cl)cc(C(=O)Nc2cc(C(=O)N3CCC(c4ccc(-c5cnn(C)c5)cc4)CC3)ccc2C)c1 [Compound 128, 3-chloro-5-methoxy-N-(2-methyl-5-(4-(4-(1-methyl-1H-pyrazol-4-yl)phenyl)piperidine-1-carbonyl)phenyl)benzamide]
12 | 22.9 | 104 | 34.7 | 21.4 | > 10000 | Cc1ccc(C(=O)N2CCC(c3ccc(-c4cnn(C)c4)cc3)CC2)cc1NC(=O)c1ccc(C#N)cc1F [Compound 129, 4-cyano-2-fluoro-N-(2-methyl-5-(4-(4-(1-methyl-1H-pyrazol-4-yl)phenyl)piperidine-1-carbonyl)phenyl)benzamide]
13 | 47.9 | 108 | 126 | ~123 | > 10000 | Cc1ccc(C(=O)N2CCC(c3ccc(-c4cnn(C)c4)cc3)CC2)cc1NC(=O)c1cccs1 [Compound 130, N-(2-methyl-5-(4-(4-(1-methyl-1H-pyrazol-4-yl)phenyl)piperidine-1-carbonyl)phenyl)thiophene-2-carboxamide]
14 | 51.3 | 109 | 107 | 126 | > 6170 | Cc1ccc(C(=O)N2CCC(c3ccc(-c4cnn(C)c4)cc3)CC2)cc1NC(=O)c1ccc(F)cc1F [Compound 131, 2,4-difluoro-N-(2-methyl-5-(4-(4-(1-methyl-1H-pyrazol-4-yl)phenyl)piperidine-1-carbonyl)phenyl)benzamide]
15 | 120 | 97 | 204 | 339 | > 10000 | Cc1ccc(C(=O)N2CCC(c3ccc(-c4cnn(C)c4)cc3)CC2)cc1NC(=O)c1ccccc1C(F)(F)F [Compound 132, N-(2-methyl-5-(4-(4-(1-methyl-1H-pyrazol-4-yl)phenyl)piperidine-1-carbonyl)phenyl)-2-(trifluoromethyl)benzamide]
16 | 37.2 | 96 | 74.1 | 91.2 | > 10000 | Cc1ccc(C(=O)N2CCC(c3ccc(-c4cnn(C)c4)cc3)CC2)cc1NC(=O)c1ccc2c(c1)OCO2 [Compound 133, N-(2-methyl-5-(4-(4-(1-methyl-1H-pyrazol-4-yl)phenyl)piperidine-1-carbonyl)phenyl)benzo[d][1,3]dioxole-5-carboxamide]
17 | 57.5 | 111 | 52.5 | ~38 | > 10000 | Cc1ccc(C(=O)N2CCC(c3ccc(-c4cnn(C)c4)cc3)CC2)cc1NC(=O)c1ccc(NC2CCC2)nc1 [Compound 134, 6-(cyclobutylamino)-N-(2-methyl-5-(4-(4-(1-methyl-1H-pyrazol-4-yl)phenyl)piperidine-1-carbonyl)phenyl)nicotinamide]
18 | 16.2 | 107 | 55 | 87.1 | > 10000 | COc1ccc(C(=O)Nc2cc(C(=O)N3CCC(c4ccc(-c5cnn(C)c5)cc4)CC3)ccc2C)cc1O [Compound 135, 3-hydroxy-4-methoxy-N-(2-methyl-5-(4-(4-(1-methyl-1H-pyrazol-4-yl)phenyl)piperidine-1-carbonyl)phenyl)benzamide]
19 | 30.9 | 105 | 69.2 | 1230 | ~5130 | Cc1ccc(C(=O)N2CCC(c3ccc(-c4cnn(C)c4)cc3)CC2)cc1NC(=O)c1cnc(Cl)nc1 [Compound 136, 2-chloro-N-(2-methyl-5-(4-(4-(1-methyl-1H-pyrazol-4-yl)phenyl)piperidine-1-carbonyl)phenyl)pyrimidine-5-carboxamide]
20 | 55 | 103 | 240 | 417 | > 10000 | Cc1ccc(C(=O)N2CCC(c3ccc(-c4cnn(C)c4)cc3)CC2)cc1NC(=O)c1cc(F)ccc1C [Compound 137, 5-fluoro-2-methyl-N-(2-methyl-5-(4-(4-(1-methyl-1H-pyrazol-4-yl)phenyl)piperidine-1-carbonyl)phenyl)benzamide]
